Like-named read-outs stand apart in the source and are kept apart here.
Columns and labels:
[1] = target: KRAS WT (Homo sapiens (Human), UniProt P01116+P62937); experiment: Ras-Raf disruption/FRET/MOA assay (BRAF RBD, Cyclophilin A); format: biochemical
Experimental: (§1) Compound is present in plate wells as a 10-point 3-fold dilution series starting at a final concentration of 30 μM. After incubation at 25° C. for 3 hours, a mixture of Anti-His Eu—W1024 and anti-GST allophycocyanin is then added to assay sample wells at final concentrations of 10 nM and 50 nM, respectively, and the reaction incubated for an additional 1.5 hours. […] Compounds that facilitate disruption of a Ras: RAF complex are identified as those eliciting a decrease in the TR-FRET ratio relative to DMSO control wells.
(§2) Disruption of B-Raf Ras-Binding Domain (BRAF^RBD) Interaction with K-Ras by Compounds of the Invention (Also Called a FRET Assay or an MOA Assay)
(§3) Note—The following protocol describes a procedure for monitoring disruption of K-Ras G12C (GMP-PNP) binding to BRAF^RBD by a compound of the invention. This protocol may also be executed substituting other Ras proteins or nucleotides.
(§4) The purpose of this biochemical assay was to measure the ability of test compounds to facilitate ternary complex formation between a nucleotide-loaded K-Ras isoform and Cyclophilin A; the resulting ternary complex disrupts binding to a BRAF^RBD construct, inhibiting K-Ras signaling through a RAF effector. Data is reported as IC50 values.
(§5) In assay buffer containing 25 mM HEPES pH 7.3, 0.002% Tween20, 0.1% BSA, 100 mM NaCl and 5 mM MgCl2, tagless Cyclophilin A, His6-K-Ras-GMPPNP, and GST-BRAF^RBD were combined in a 384-well assay plate at final concentrations of 25 μM, 12.5 nM and 50 nM, respectively. Compound was present in plate wells as a 10-point 3-fold dilution series starting at a final concentration of 30 μM. After incubation at 25° C. for 3 hours, a mixture of Anti-His Eu—W1024 and anti-GST allophycocyanin was then added to assay sample wells at final concentrations of 10 nM and 50 nM, respectively, and the reaction incubated for an additional 1.5 hours. […] Compounds that facilitate disruption of a K-Ras: RAF complex were identified as those eliciting a decrease in the TR-FRET ratio relative to DMSO control wells.

[2] = target: KRAS G13C (Homo sapiens (Human), UniProt P01116+P62937, G13C); experiment: as above; format: biochemical
Sequence of KRAS G13C (P01116 other isoform, or with tags, fused parts or gaps G13C): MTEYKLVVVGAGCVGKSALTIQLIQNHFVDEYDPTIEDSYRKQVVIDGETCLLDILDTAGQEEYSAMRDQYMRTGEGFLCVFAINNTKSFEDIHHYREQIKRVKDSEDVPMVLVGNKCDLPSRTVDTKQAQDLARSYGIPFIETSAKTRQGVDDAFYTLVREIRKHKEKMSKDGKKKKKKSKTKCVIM
Sequence of KRAS G13C (P62937 whole entry): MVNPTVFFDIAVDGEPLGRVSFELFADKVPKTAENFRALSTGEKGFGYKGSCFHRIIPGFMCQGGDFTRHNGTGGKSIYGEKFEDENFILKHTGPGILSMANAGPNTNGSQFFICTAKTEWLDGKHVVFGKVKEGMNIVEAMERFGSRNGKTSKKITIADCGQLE
Experimental: as §1, §2, §3, §4, §5

[3] = target: KRAS G12S (Homo sapiens (Human), UniProt P01116+P62937, G12S); experiment: as above; format: biochemical
Sequence of KRAS G12S (P01116 other isoform, or with tags, fused parts or gaps G12S): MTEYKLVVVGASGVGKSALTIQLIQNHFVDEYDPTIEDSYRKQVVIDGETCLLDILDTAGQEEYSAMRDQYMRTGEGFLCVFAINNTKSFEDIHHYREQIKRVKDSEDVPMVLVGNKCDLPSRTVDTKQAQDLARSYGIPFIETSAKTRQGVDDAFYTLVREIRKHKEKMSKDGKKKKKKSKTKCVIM
Sequence of KRAS G12S (P62937 whole entry): as the sequence (P62937 whole entry) above
Experimental: as §1, §2, §3, §4, §5

[4] = target: NRAS G12C (Homo sapiens (Human), UniProt P01111+P62937, G12C); experiment: as above; format: biochemical
Sequence of NRAS G12C (P01111 whole entry G12C): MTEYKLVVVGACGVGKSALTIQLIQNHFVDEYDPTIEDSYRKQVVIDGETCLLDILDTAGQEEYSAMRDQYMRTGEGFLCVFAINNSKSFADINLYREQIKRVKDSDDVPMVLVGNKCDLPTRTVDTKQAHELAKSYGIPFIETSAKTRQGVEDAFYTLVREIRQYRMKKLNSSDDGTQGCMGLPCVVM
Sequence of NRAS G12C (P62937 whole entry): as the sequence (P62937 whole entry) above
Experimental: as §1, §2, §3, §4, §5

[5] = target: KRAS G12C (Homo sapiens (Human), UniProt P01116+P62937, G12C); experiment: as above; format: biochemical
Sequence of KRAS G12C (P01116-2 other isoform, or with tags, fused parts or gaps G12C): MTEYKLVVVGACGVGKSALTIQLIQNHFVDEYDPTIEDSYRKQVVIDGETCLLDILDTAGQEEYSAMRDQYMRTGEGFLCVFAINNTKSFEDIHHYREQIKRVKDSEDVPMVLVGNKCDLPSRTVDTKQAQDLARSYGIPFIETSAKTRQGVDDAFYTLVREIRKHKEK
Sequence of KRAS G12C (P62937 whole entry): as the sequence (P62937 whole entry) above
Experimental: as §1, §2, §3, §4, §5

[6] = target: KRAS G13D (Homo sapiens (Human), UniProt P01116+P62937, G13D); experiment: as above; format: biochemical
Sequence of KRAS G13D (P01116 other isoform, or with tags, fused parts or gaps G13D): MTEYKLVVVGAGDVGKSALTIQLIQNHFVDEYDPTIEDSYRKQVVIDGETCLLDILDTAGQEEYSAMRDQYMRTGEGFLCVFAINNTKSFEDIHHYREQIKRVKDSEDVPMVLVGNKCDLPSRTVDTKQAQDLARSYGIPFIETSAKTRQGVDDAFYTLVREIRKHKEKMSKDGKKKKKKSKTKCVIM
Sequence of KRAS G13D (P62937 whole entry): as the sequence (P62937 whole entry) above
Experimental: as §1, §2, §3, §4, §5

[7] = target: KRAS G12V (Homo sapiens (Human), UniProt P01116+P62937, G12V); experiment: as above; format: biochemical
Sequence of KRAS G12V (P01116 other isoform, or with tags, fused parts or gaps G12V): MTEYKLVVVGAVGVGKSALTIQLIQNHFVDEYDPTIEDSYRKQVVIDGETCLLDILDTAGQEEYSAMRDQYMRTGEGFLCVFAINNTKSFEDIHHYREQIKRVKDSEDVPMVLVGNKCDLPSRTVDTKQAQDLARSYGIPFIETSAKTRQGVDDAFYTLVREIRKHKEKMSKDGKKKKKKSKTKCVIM
Sequence of KRAS G12V (P62937 whole entry): as the sequence (P62937 whole entry) above
Experimental: as §1, §2, §3, §4, §5

[8] = target: KRAS G12D (Homo sapiens (Human), UniProt P01116+P62937, G12D); experiment: as above; format: biochemical
Sequence of KRAS G12D (P01116 other isoform, or with tags, fused parts or gaps G12D): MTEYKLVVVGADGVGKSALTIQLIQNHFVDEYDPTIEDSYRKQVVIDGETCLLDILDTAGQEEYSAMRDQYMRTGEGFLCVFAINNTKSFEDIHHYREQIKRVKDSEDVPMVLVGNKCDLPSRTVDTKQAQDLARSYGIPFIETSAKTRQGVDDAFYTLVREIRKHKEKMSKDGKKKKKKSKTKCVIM
Sequence of KRAS G12D (P62937 whole entry): as the sequence (P62937 whole entry) above
Experimental: as §1, §2, §3, §4, §5

[9] = system: Capan-1 cells (K-Ras G12V); experiment: CellTiter-Glo cell viability, Capan-1; format: cell-based, human; details: read-out: Capan-1 Cell Viability IC50
Experimental: Note—The following protocol describes a procedure for monitoring cell viability of K-Ras mutant cancer cell lines in response to a compound of the invention. Other RAS isoforms may be employed, though the number of cells to be seeded will vary based on cell line used.
Test compounds (132.5 nl) were directly dispensed into the assay plates containing cells. […] On day 5, assay plates and their contents were equilibrated to room temperature for approximately 30 minutes. […] Luminescence was measured using the PerkinElmer Enspire. Data were normalized by the following: (Sample signal/Avg. DMSO)*100. The data were fit using a four-parameter logistic fit.

[10] = system: K-Ras G12C (NCI-H358 cells); experiment: Potency assay: pERK in NCI-H358 cells; format: cell-based, human; details: Homo sapiens; NCI-H358 cells, 4 hours; read-out: pERK EC50 (H358 KRAS G12C)
Procedure, shortened: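 Cells plated the day before were exposed for 4 h at 37° C, 5% CO2 to a 10-point, 3-fold DMSO dilution series (10 mM top stock), in duplicate. Phospho-ERK was read by AlphaLISA SureFire Ultra or by In-Cell Western with DRAQ5 DNA stain, and IC50 came from a 4-parameter sigmoidal fit.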

[11] = read-out: KRAS WT FRET data IC50
[12] = read-out: NRAS G12C FRET data IC50
[13] = read-out: KRAS G13D FRET data IC50
[14] = Homo sapiens, CAPAN-1, 120 h, K-Ras G12V, 5-day treatment

Sequence of KRAS WT (P01116 other isoform, or with tags, fused parts or gaps): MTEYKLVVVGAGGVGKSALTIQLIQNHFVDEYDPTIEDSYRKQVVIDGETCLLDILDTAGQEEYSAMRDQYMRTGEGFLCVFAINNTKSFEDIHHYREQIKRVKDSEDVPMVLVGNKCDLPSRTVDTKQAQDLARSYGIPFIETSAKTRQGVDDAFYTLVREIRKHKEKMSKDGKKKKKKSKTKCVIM
Sequence of KRAS WT (P62937 whole entry): as the sequence (P62937 whole entry) above

SMILES | IC50 [1, 11] [nM] | IC50 ([2]; read-out: KRAS G13C FRET IC50) [nM] | IC50 ([3]; read-out: KRAS G12S FRET IC50) [µM] | IC50 [4, 12] [nM] | IC50 ([5]; read-out: KRAS G12C FRET IC50) [nM] | IC50 [6, 13] [nM] | IC50 ([7]; read-out: KRAS G12V FRET IC50) [nM] | IC50 ([8]; read-out: KRAS G12D FRET IC50) [µM] | IC50 [9, 14] [µM] | IC50 ([1]; KRAS WT FRET data IC50) [nM] | IC50 ([2]; KRAS G13C FRET IC50) [nM] | IC50 ([3]; KRAS G12S FRET IC50) [µM] | IC50 ([4]; NRAS G12C FRET data IC50) [nM] | IC50 ([6]; KRAS G13D FRET data IC50) [nM] | IC50 ([7]; KRAS G12V FRET IC50) [nM] | IC50 ([8]; KRAS G12D FRET IC50) [µM] | IC50 ([9]; Homo sapiens, CAPAN-1, 120 h) [µM] | IC50 ([5]; KRAS G12C FRET IC50) [nM] | IC50 ([9]; K-Ras G12V, 5-day treatment) [µM] | EC50 [10] [µM]
CCn1c(-c2cccnc2[C@H](C)OC)c2c3cc(ccc31)-c1cc(O)cc(c1)C[C@H](NC(=O)[C@H](C(C)C)N(C)C(=O)OCc1ccccc1)C(=O)N1CCC[C@H](N1)C(=O)OCC(C)(C)C2 [Compound A185] | 1000 to 10000 | 100 to 1000 | 1 to 10 | 1000 to 10000 | 1000 to 10000 | 1000 to 10000 | 1000 to 10000 | > 10 | 1 to 10 |  |  |  |  |  |  |  |  |  |  | 
CCn1c(-c2cccnc2[C@H](C)OC)c2c3cc(ccc31)-c1cc(O)cc(c1)C[C@H](NS(=O)(=O)C1CC1)C(=O)N1CCC[C@H](N1)C(=O)OCC(C)(C)C2 [Compound A196] | > 10000 | > 10000 | > 10 | > 10000 |  | > 10000 | > 10000 | > 10 | > 10 |  |  |  |  |  |  |  |  |  |  | 
CCn1c(-c2cccnc2[C@H](C)OC)c2c3cc(ccc31)-c1cc(O)cc(c1)C[C@H](NS(=O)(=O)c1ccc(OC)cc1OC)C(=O)N1CCC[C@H](N1)C(=O)OCC(C)(C)C2 [Compound A198] |  |  |  |  |  |  |  |  |  | > 10000 | > 10000 | > 10 | > 10000 | > 10000 | > 10000 | > 10 | > 10 |  |  | 
CCn1c(-c2cccnc2[C@H](C)OC)c2c3cc(ccc31)-c1cc(O)cc(c1)C[C@H](NC(=O)N1CCOCC1)C(=O)N1CCC[C@H](N1)C(=O)OCC(C)(C)C2 [Compound A199] |  |  |  |  |  |  |  |  |  | 1000 to 10000 | 1000 to 10000 | > 10 | 1000 to 10000 | 1000 to 10000 |  | > 10 | > 10 | 1000 to 10000 |  | 
CCn1c(-c2cccnc2[C@H](C)OC)c2c3cc(ccc31)-c1csc(n1)C[C@H](NC(=O)[C@H](C(C)C)N(C)C(=O)N1CC(OC)C1)C(=O)N1CCC[C@H](N1)C(=O)OCC(C)(C)C2 [Compound A205] | 100 to 1000 | 100 to 1000 | 0.1 to 1 | 10 to 100 | 10 to 100 | 100 to 1000 | 100 to 1000 | 0.1 to 1 |  |  |  |  |  |  |  |  |  |  | 0.01 to 0.1 | 
CCn1c(-c2cnccc2COC)c2c3cc(ccc31)-c1cc(O)cc(c1)C[C@H](NC(=O)[C@H](C(C)C)N(C)C(=O)N1CCOCC1)C(=O)N1CCC[C@H](N1)C(=O)OCC(C)(C)C2 [Compound A257] | 100 to 1000 | 100 to 1000 | 0.1 to 1 | 100 to 1000 | 100 to 1000 | 100 to 1000 | 100 to 1000 | 1 to 10 |  |  |  |  |  |  |  |  |  |  |  | < 5
CCn1c(-c2cccnc2[C@H](C)OC)c2c3cc(ccc31)-c1cccc(c1)C[C@H](NC(=O)[C@H](C(C)C)N(C)C(=O)[C@H]1OCC[C@H]1c1ccccc1)C(=O)N1CCC[C@H](N1)C(=O)OCC(C)(C)C2 [Compound A429] | 1000 to 10000 | > 10000 | > 10 | 1000 to 10000 | 1000 to 10000 | > 10000 | > 10000 | > 10 |  |  |  |  |  |  |  |  |  |  |  | 

Source: patent publication US20250195521A1 (Revolution Medicines, Inc., priority 2020, published 2025)
